Earlier results on one molecule are cited in patent US20080254084A1, “Antimicrobial Preparations Having a Content of Octenidine Dihydrochloride Encapsulated in Liposomes” (Air Liquide Sante (International), priority 2005, published 2008).

Counter-ions that a name gives are not always drawn.

Data set [1] relates to a large number of microbes. To be noted: concentrations of >0.001% octenidine dihydrochloride, within 1 min.
For data set [2] the following is noted: octenidine dihydrochloride concentration.

Take `CCCCCCCCNc1cc[n+](CCCCCCCCCC[n+]2ccc(NCCCCCCCC)cc2)cc1` [octenidine dihydrochloride]: the reduction factor in data set [1] is 5 decadic units. In addition, in data set [2], the “concentration at which cytotoxicity is present” value was more than 0.001 % by weight.
